From the CheMixHub viscosity set

Assay: xn = mol fraction of the nth substance listed

CCCCOC(C)=O + CCCCCO
viscosity [mPa·s], 101 kPa
Conditions	x1 = 0.0963	x1 = 0.2032	x1 = 0.2987	x1 = 0.4058	x1 = 0.4868	x1 = 0.5981	x1 = 0.7048	x1 = 0.7976	x1 = 0.8954
298.15 K	2.974	2.512	2.15	1.797	1.561	1.284	1.059	0.907	0.769
303.15 K	2.593	2.191	1.886	1.573	1.37	1.14	0.963	0.846	0.723
308.15 K	2.287	1.933	1.669	1.396	1.223	1.025	0.875	0.776	0.678
313.15 K	2.018	1.714	1.483	1.261	1.107	0.941	0.809	0.717	0.639

CCCN + CCCCCO
viscosity [mPa·s], 101.33 kPa
Conditions	x1 = 0.0915	x1 = 0.1847	x1 = 0.3069	x1 = 0.4139	x1 = 0.4894	x1 = 0.581	x1 = 0.7163	x1 = 0.8117	x1 = 0.9
303.15 K	2.504	2.167	1.755	1.431	1.224	0.9914	0.7168	0.5615	0.4508
313.15 K	2.066	1.79	1.437	1.176	1.003	0.8193	0.6111	0.488	0.3958

CCOC(=O)c1ccc(O)cc1 + CCCCCOC(C)=O
Conditions	viscosity [mPa·s]
298.15 K, 101 kPa, x1 = 0.5	1.66

Oc1ccccc1Cl + CCCCCOC(C)=O
Conditions	viscosity [mPa·s]
298.15 K, 101 kPa, x1 = 0.5	1.202

CCCN + CCCCN(CCCC)CCCC
303.15 K, 101 kPa
Conditions	viscosity [mPa·s]
x2 = 0.2025	0.5088
x2 = 0.4055	0.6949
x2 = 0.4953	0.7795
x2 = 0.603	0.8793
x2 = 0.7931	1.04

Oc1ccccc1Cl + CCCCN(CCCC)CCCC
298.16 K, 101 kPa
Conditions	viscosity [mPa·s]
x1 = 0.5022	21.91
x1 = 0.5499	34.61
x1 = 0.6012	82.36
x1 = 0.6516	192.6
x1 = 0.7025	410.1
x1 = 0.7266	475.5
x1 = 0.7554	427.4
x1 = 0.7826	289.1
x1 = 0.8001	191.3
x1 = 0.812	134.4
x1 = 0.8523	63.53
x1 = 0.8708	39.93
x1 = 0.8974	19.56
x1 = 0.9113	9.963
x1 = 0.9432	4.507
x1 = 0.9687	2.537
x2 = 0.004631	2.323
